Test system: miR-129-2 expression
Experiment: miR-129-2 expression by qRT-PCR after 5-aza-cytidine treatment of HCC cells
Assay type: cell-based, human
Details: 5 μM 5-azaC for 3 days
Description: Hepatoma cell lines, HepG2, HuH7, J7, Hep3B, Mahlavu and SK-Hep-1 were maintained in Dulbecco's modified Eagle's medium at 37° C. in a humidified, 5% CO2 incubator. Twenty-four hours prior to treatment, HuH7 cells (1×10^5 cells/well) and other hepatoma cells (3×10^5 cells/well) were seeded into 6-well plates. Cells were treated with 5 μM 5-azaC (Sigma) for 3 days. Culture medium was replaced every 24 hours with fresh media containing 5-azaC.
Total RNA of hepatoma cells and HCC clinical samples was extracted using TRIzol reagent (Invitrogen). cDNA synthesis was performed with Superscript III reverse transcriptase according to the manufacturer's instructions (Invitrogen). Real-time quantitative polymerase chain reaction was performed on the ABI Prism 7000 sequence detection System using the SYBR Green PCR master mix (Applied Biosystems). For analysis of mature miRNA expression, TaqMan miRNA assay system (Applied Biosystems) was used as the manufacturer's manual. The relative expression level was analyzed by the ΔΔCt method, and U6 and RNU44 were used as an internal control.
In order to evaluate whether miR-129-2 expression was regulated by DNA methylation, the expression level of miR-129-2 between normal liver cells and HCC cells was examined by quantitative reverse transcription PCR.

Nc1ncn([C@@H]2O[C@H](CO)[C@@H](O)[C@H]2O)c(=O)n1 [5-aza-cytidine]
miR-129-2 expression level elevated compared with untreated cell (HuH7 cell): 2.5 fold | miR-129-2 expression level elevated compared with untreated cell (J7 cell): 16 fold
